Laboratory results published in ChEMBL document CHEMBL5512633, “Hit-to-lead optimization of 2-aminoquinazolines as anti-microbial agents against Leishmania donovani” (Eur J Med Chem, 2024).
Activity calls are given as the source filed them. No cut-off for these calls is given here.

How the values were obtained:
[1] = Cytotoxicity against human THP-1 cells incubated for 72 hrs by DAPI staining based analysis; format: toxicity, cell-based
Leishmania donovani [2] = assay: Antileishmanial activity against Leishmania donovani MHOM/IN/1983/AG83 axenic amastigotes assessed as inhibition of growth incubated for 48 hrs by flow cytometric analysis; format: functional, organism-based; conditions: MHOM/IN/1983/AG83, 48 h
Leishmania donovani [3] = assay: Antileishmanial activity against Leishmania donovani MHOM/IN/1983/AG83 axenic amastigotes assessed as inhibition of growth at 30 uM incubated for 48 hrs by flow cytometric analysis relative to control; format: functional
[4] = Lipophilicity, logD of compound in 1-octanol and phosphate buffer at pH 7.4 by HPLC-UV analysis; format: physicochemical; conditions: 1-octanol/phosphate buffer
[5] = Metabolic stability in human liver microsomes assessed as half-life preincubated for 10 mins and measured after 60 mins by LC-MS/MS analysis; format: ADME, Microsome
[6] = Stability in human plasma assessed as compound remaining measured after 2 hrs by LC-MS/MS analysis; format: ADME, cell-free; conditions: read-out: Stability
[7] = Metabolic stability in mouse liver microsomes assessed as hepatic blood flow preincubated for 10 mins and measured after 60 mins by LC-MS/MS analysis; format: ADME, Microsome; conditions: read-out: QH
[8] = Metabolic stability in human liver microsomes assessed as hepatic blood flow preincubated for 10 mins and measured after 60 mins by LC-MS/MS analysis; format: ADME, Microsome; conditions: read-out: QH
[9] = Stability in mouse plasma assessed as compound remaining measured after 2 hrs by LC-MS/MS analysis; format: ADME, cell-free; conditions: read-out: Stability
[10] = Metabolic stability in mouse liver microsomes assessed as half-life preincubated for 10 mins and measured after 60 mins by LC-MS/MS analysis; format: ADME, Microsome
[11] = Cytotoxicity against human HepG2 cells incubated for 48 hrs by PI staining based flow cytometric analysis; format: toxicity, cell-based
[12] = Selectivity index, ratio of CC50 for cytotoxicity against human HepG2 cells to IC50 for antileishmanial activity against Leishmania donovani MHOM/IN/1983/AG83 axenic amastigotes; format: toxicity, cell-based; conditions: read-out: Ratio CC50/IC50
Leishmania donovani [13] = assay: Antileishmanial activity against Leishmania donovani; format: functional, organism-based

SMILES	CC50 at 72 h [1] [µM]	IC50 (Leishmania donovani [2]) [µM]	logD [4]	half-life [5] [min]	remaining at 2 h [6] [%]	hepatic extraction ratio at 1 h [7]	hepatic extraction ratio at 1 h [8]	remaining at 2 h [9] [%]	half-life [10] [min]	also measured
COc1cc2c(N3CCCCC3)nc(NC(=O)c3ccc(Cl)cc3)nc2cc1OC1CCCC1	7.58	16.6								
COc1ccc(CNc2nc(N3CCCCC3)c3cc(OC)c(O)cc3n2)cc1	> 50	12.3								
COc1cc2c(N3CCCCC3)nc(N)nc2cc1OCc1ccccc1	15.4	12								
COc1cc2c(N3CCCCC3)nc(NCc3ccccc3)nc2cc1O	30.2	11.3								
COc1cc2c(N3CCCCC3)nc(NCc3ccc(F)cc3)nc2cc1O	28.2	12.2								
COc1cc2c(N3CCCCC3)nc(NS(C)(=O)=O)nc2cc1OCc1ccccc1	> 50									inhibition at 30 µM (Leishmania donovani [3]): ~5.5%
COc1cc2c(N3CCCCC3)nc(N(C)Cc3ccc(Cl)cc3)nc2cc1OC1CCCC1	> 50	10.2								
COc1cc2c(N3CCCCC3)nc(NCc3ccc(C(C)(C)C)cc3)nc2cc1OC1CCCC1	2.63	4.93	3.66	117	63	0.454	0.216	44	22.8	
COc1cc2c(N3CCCCC3)nc(NCc3ccc(F)cc3)nc2cc1OC1CCCC1	46.5	10.2	2.64	12.4	105	0.592	0.722	96.9	13	
COc1cc2c(N3CCCCC3)nc(NCc3ccc(C(F)(F)F)cc3)nc2cc1OC1CCCC1	28.1	17.9	2.94	38.9	97.5	0.484	0.455	88.1	20.3	
COc1cc2c(N3CCCCC3)nc(NCc3ccc(Br)cc3)nc2cc1OC1CCCC1	15.2	2.57	2.6	83.4	96.2	0.288	0.281	92.6	46.5	CC50 at 48 h [11]: 28.1 µM; selectivity ratio [12]: 10.9
COc1cc2c(N3CCCCC3)nc(NCc3ccccc3)nc2cc1OC1CCCC1	4.13	7.49	2.59	20.8	93.7	0.496	0.607	88.7	19.2	
COc1cc2c(N3CCOCC3)nc(NCc3ccc(F)cc3)nc2cc1OC1CCCC1	> 50	12	3.22	6	59.3	0.732	0.843	95.6	6.9	
COc1cc2c(N3CCCCC3)nc(Nc3ccc(Cl)cc3)nc2cc1OC1CCCC1	37.5	22.7								
COc1cc2c(N3CCCCC3)nc(NCc3ccccc3)nc2cc1OCc1ccccc1	> 100	9.54								
COc1cc2c(N3CCCCC3)nc(N(C)C)nc2cc1OC1CCCC1	74.3	6.85	2.74	39	83.8	0.579	0.452	80.1	13.7	CC50 at 48 h [11]: 66.1 µM; selectivity ratio [12]: 9.65
COc1cc2c(N3CCCCC3)nc(N(C)Cc3ccc(Br)cc3)nc2cc1OC1CCCC1	34.4	54								
COc1cc2c(N3CCCCC3)nc(NCc3ccc(C(F)(F)F)cc3)nc2cc1O	27.1	8.91								
CCCCc1ccc(CNc2nc(N3CCCCC3)c3cc(OC)c(OC4CCCC4)cc3n2)cc1	5.69									inhibition at 30 µM (Leishmania donovani [3]): ~17%
COc1cc2c(N3CCCCC3)nc(Cl)nc2cc1OCc1ccccc1	> 100									inhibition (Leishmania donovani [3]): inactive
COc1cc2c(N3CCCCC3)nc(NCC3CCCCC3)nc2cc1OC1CCCC1	6.97	4.36	3.34	22.2	46	0.699	0.747	99.3	16.3	
Cc1cc(N2CCc3ccccc3C2)nc(Nc2ccc(S(=O)(=O)N3CCOCC3)cc2)n1										IC50 (Leishmania donovani [13]): 5 µM
COc1cc2c(N3CCCCC3)nc(NS(C)(=O)=O)nc2cc1O	> 100									inhibition at 30 µM (Leishmania donovani [3]): ~3.25%
COc1ccc(-c2cnc(NC(=O)c3ccc(F)cc3)n2C)cc1	> 50	15								IC50 (Leishmania donovani [13]): 1.2 µM
